Source: patent publication US9624233B2, “Compounds for treating pruritic conditions” (priority 2015, dated 2017)

Tests used:
Details in all cases: 2.5E−05M
[1] = molecular target: N neuronal α4β2 (h) (Homo sapiens, UniProt P17787+P43681); test: Abuse liability binding screen, N neuronal α4β2 (h) (agonist radioligand)
Description: (§1) Compound binding was calculated as a % inhibition of the binding of a radioactively labeled ligand specific for each target.

[2] = molecular target: T1, 5-HT2c (h) (Homo sapiens, UniProt P28335); test: Abuse liability binding screen, 5-HT2c (h) (agonist radioligand)
T1 sequence (P28335 33-458): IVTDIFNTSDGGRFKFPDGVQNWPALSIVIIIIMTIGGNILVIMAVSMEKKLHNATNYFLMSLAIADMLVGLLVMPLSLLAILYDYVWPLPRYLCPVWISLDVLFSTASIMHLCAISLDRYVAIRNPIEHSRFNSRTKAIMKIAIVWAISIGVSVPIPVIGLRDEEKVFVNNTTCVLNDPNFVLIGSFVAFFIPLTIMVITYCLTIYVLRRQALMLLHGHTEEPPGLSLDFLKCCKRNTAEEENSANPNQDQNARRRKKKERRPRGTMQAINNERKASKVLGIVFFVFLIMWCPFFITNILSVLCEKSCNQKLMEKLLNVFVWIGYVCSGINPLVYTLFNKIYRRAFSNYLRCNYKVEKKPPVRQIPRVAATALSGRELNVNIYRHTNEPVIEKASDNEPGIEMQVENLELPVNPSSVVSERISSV
Description: as §1

[3] = molecular target: T2, AR (h) (Homo sapiens, UniProt P10275); test: Abuse liability binding screen, AR (h) (agonist radioligand)
T2 sequence (P10275 1-920): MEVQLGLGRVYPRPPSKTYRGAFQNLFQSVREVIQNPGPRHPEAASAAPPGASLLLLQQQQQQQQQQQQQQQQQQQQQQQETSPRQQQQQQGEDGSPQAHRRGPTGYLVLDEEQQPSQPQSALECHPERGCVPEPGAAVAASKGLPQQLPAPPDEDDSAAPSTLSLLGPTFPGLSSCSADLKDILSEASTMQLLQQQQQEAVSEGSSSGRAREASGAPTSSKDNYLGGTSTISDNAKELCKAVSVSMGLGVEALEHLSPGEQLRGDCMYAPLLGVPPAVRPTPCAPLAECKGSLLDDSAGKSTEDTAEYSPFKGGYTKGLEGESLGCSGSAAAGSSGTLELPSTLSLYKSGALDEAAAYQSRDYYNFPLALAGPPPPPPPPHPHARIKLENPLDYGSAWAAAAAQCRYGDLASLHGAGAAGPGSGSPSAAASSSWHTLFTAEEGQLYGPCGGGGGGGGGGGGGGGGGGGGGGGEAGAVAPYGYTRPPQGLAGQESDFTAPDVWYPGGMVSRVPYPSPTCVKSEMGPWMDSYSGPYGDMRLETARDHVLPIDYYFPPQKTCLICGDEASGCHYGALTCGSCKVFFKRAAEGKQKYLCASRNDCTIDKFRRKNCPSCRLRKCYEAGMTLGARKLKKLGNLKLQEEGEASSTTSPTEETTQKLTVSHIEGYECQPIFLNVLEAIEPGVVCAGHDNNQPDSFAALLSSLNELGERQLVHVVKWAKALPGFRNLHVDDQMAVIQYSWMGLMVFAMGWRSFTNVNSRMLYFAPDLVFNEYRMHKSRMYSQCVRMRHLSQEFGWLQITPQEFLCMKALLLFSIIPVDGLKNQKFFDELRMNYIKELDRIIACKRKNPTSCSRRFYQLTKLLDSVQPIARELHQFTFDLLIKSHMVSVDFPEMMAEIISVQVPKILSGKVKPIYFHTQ
Description: […]. The abuse liability screen included 44 targets (receptors, transporters, on gated-channel systems) related to the dopamine, norepinephrine, serotonin, gamma-aminobutyric acid (GABA), acetylcholine, N-methyl-D-aspartate (NMDA) cannabinoid and opioid neurotransmitter systems as recommended in FDA Draft guidance on Assessment of Abuse Potential of Drugs, January 2010.
as §1
Results showing an inhibition or stimulation higher than 50% are considered to represent significant effects of the test compounds.

[4] = test system: Cl^− channel (GABA-gated); test: Abuse liability binding screen, Cl− channel (GABA-gated) (antagonist radioligand)
Description: as §1

Sequence of N neuronal α4β2 (h) (P43681 29-627 limits assumed): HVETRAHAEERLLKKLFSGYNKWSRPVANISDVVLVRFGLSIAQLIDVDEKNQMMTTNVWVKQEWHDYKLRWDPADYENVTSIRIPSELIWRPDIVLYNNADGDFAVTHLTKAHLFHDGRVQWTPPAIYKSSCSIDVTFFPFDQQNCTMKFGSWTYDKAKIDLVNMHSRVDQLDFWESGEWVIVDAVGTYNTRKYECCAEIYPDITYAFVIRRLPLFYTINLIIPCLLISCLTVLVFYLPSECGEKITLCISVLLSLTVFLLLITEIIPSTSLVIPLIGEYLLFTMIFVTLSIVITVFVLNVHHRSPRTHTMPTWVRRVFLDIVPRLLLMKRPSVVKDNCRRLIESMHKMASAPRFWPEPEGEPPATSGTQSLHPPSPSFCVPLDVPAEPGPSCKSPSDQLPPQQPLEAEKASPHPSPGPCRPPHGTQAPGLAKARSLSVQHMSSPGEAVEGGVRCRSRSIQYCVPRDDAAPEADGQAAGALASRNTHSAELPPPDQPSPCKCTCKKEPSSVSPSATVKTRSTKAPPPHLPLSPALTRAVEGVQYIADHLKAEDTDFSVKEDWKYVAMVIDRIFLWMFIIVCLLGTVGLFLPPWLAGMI
Sequence of N neuronal α4β2 (h) (P17787 26-502): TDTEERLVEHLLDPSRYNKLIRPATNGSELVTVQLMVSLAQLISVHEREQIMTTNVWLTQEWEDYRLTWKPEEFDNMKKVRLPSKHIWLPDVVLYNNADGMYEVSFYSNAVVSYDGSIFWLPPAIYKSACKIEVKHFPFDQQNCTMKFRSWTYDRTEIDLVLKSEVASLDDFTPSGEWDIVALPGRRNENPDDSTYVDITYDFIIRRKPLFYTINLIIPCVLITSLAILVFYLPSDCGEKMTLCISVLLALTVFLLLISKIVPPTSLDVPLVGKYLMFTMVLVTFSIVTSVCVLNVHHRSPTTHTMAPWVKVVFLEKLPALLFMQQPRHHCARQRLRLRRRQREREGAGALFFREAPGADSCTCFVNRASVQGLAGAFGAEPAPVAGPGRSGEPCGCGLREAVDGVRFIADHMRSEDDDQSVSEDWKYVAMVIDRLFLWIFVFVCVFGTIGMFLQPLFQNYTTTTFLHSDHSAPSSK

`O=C(O)[C@H]1O[C@@H](Oc2ccc3c4c2O[C@H]2[C@@H](O)CC[C@@]5(O)[C@@H](C3)N(CC3CCC3)CC[C@]425)[C@H](O)[C@@H](O)[C@@H]1O` [Compound M5, nalbuphine-3-beta-D-glucuronid] was tested, and the “% Inhibition of Control Specific Binding 1st” value [1] was 0.8%, the “% Inhibition of Control Specific Binding 2nd” value [1] was −2.0% and the “% Inhibition of Control Specific Binding Mean” value [1] was −0.6%. The “% Inhibition of Control Specific Binding 1st” value [2] was −7.9%, the “% Inhibition of Control Specific Binding 2nd” value [2] was −8.2% and the “% Inhibition of Control Specific Binding Mean” value [2] was −8.0%. The “% Inhibition of Control Specific Binding 1st” value [3] was 4.9%, the “% Inhibition of Control Specific Binding 2nd” value [3] was −0.8% and the “% Inhibition of Control Specific Binding Mean” value [3] was 2.1%. For the same molecule, the “% Inhibition of Control Specific Binding 1st” value [4] was 3.3%, the “% Inhibition of Control Specific Binding 2nd” value [4] was −7.4% and the “% Inhibition of Control Specific Binding Mean” value [4] was −2.1%.
